# Measurements reported in patent US10179929B2, “Water-soluble activatable molecular probes, intermediates for the synthesis thereof and associated detection methods” (ECOLE NORMALE SUPERIEURE DE LYON, priority 2014, dated 2019).
# Assay: Evaluation of hydrosolubility: presence or absence of precipitate in buffered solutions
# Settings: for hydrosolubility (presence or absence of precipitate): diluted from DMSO stock solution
# Description: The hydrosolubility of the compounds was evaluated as a function of the presence or absence of precipitate in buffered solutions of the compounds in question at different concentrations.
# These stock solutions were then diluted in a commercial PBS buffer in order to obtain a range of final concentrations between 1 mM and 50 μM. A compound was declared to be insoluble if a precipitate appeared and persisted after dilution.
compound,measurement,setting,value
"Cc1cc(=O)oc2cc(NC(=O)[C@@H](N)CC(C)C)ccc12 [AMC-Leu, reference compound]",appearance of stock solution in DMSO,100 mM in DMSO,cloudy solution
"Cc1cc(=O)oc2cc(OC(=O)N3CCNCC3CNC(=O)Cc3ccccc3)ccc12 (centres unmarked) [Compound 12, 4-methyl-2-oxo-2H-chromen-7-yl 2-((2-phenylacetamido)methyl)piperazine-1-carboxylate]",hydrosolubility (presence or absence of precipitate),50 μM in PBS buffer,soluble
same,hydrosolubility (presence or absence of precipitate),100 μM in PBS buffer,soluble
same,hydrosolubility (presence or absence of precipitate),250 μM in PBS buffer,soluble
same,hydrosolubility (presence or absence of precipitate),500 μM in PBS buffer,soluble
same,hydrosolubility (presence or absence of precipitate),1 mM in PBS buffer,soluble
"Cc1cc(=O)oc2cc(OC(=O)N3CCCCC3CNC(=O)Cc3ccccc3)ccc12 (centres unmarked) [Compound 15, 4-methyl-2-oxo-2H-chromen-7-yl 2-((2-phenylacetamido)methyl)piperidine-1-carboxylate, reference compound]",hydrosolubility (presence or absence of precipitate),50 μM in PBS buffer,insoluble
same,hydrosolubility (presence or absence of precipitate),100 μM in PBS buffer,insoluble
same,hydrosolubility (presence or absence of precipitate),250 μM in PBS buffer,insoluble
same,hydrosolubility (presence or absence of precipitate),500 μM in PBS buffer,insoluble
same,hydrosolubility (presence or absence of precipitate),1 mM in PBS buffer,insoluble
"CCCCCCCC(=O)OCC1CNCCN1C(=O)Oc1ccc2c(C)cc(=O)oc2c1 (centres unmarked) [Compound 21, 4-methyl-2-oxo-2H-chromen-7-yl 2-((octanoyloxy)methyl)piperazine-1-carboxylate]",hydrosolubility (presence or absence of precipitate),50 μM in PBS buffer,soluble
same,hydrosolubility (presence or absence of precipitate),100 μM in PBS buffer,soluble
same,hydrosolubility (presence or absence of precipitate),250 μM in PBS buffer,soluble
same,hydrosolubility (presence or absence of precipitate),500 μM in PBS buffer,insoluble
same,hydrosolubility (presence or absence of precipitate),1 mM in PBS buffer,insoluble
"CCCCCCCC(=O)OCC1CN(CCCCS(=O)(=O)O)CCN1C(=O)Oc1ccc2c(C)cc(=O)oc2c1 (centres unmarked) [Compound 22, 4-(4-(((4-methyl-2-oxo-2H-chromen-7-yl)oxy)carbonyl)-3-((octanoyloxy)methyl)piperazin-1-yl)butane-1-sulfonic Acid]",hydrosolubility (presence or absence of precipitate),50 μM in PBS buffer,soluble
same,hydrosolubility (presence or absence of precipitate),100 μM in PBS buffer,soluble
same,hydrosolubility (presence or absence of precipitate),250 μM in PBS buffer,soluble
same,hydrosolubility (presence or absence of precipitate),500 μM in PBS buffer,soluble
same,hydrosolubility (presence or absence of precipitate),1 mM in PBS buffer,soluble
"CCCCCCCC(=O)OCC1CCCCN1C(=O)Oc1ccc2c(C)cc(=O)oc2c1 (centres unmarked) [Compound 27, 4-methyl-2-oxo-2H-chromen-7-yl 2-((octanoyloxy)methyl)piperidine-1-carboxylate, reference compound]",hydrosolubility (presence or absence of precipitate),50 μM in PBS buffer,soluble
same,hydrosolubility (presence or absence of precipitate),100 μM in PBS buffer,soluble
same,hydrosolubility (presence or absence of precipitate),250 μM in PBS buffer,insoluble
same,hydrosolubility (presence or absence of precipitate),500 μM in PBS buffer,insoluble
same,hydrosolubility (presence or absence of precipitate),1 mM in PBS buffer,insoluble
"COCCOCCOCCn1cc(CCC(=O)N2CCN(C(=O)Oc3ccc4c(C)cc(=O)oc4c3)C(CNC(=O)Cc3ccccc3)C2)nn1 (centres unmarked) [Compound 31, 4-methyl-2-oxo-2H-chromen-7-yl 4-(3-(1-(2-(2-(2-methoxyethoxy)ethoxy)ethyl)-1H-1,2,3-triazol-4-yl)propanoyl)-2-((2-phenylacetamido)methyl)piperazine-1-carboxylate]",hydrosolubility (presence or absence of precipitate),50 μM in PBS buffer,soluble
same,hydrosolubility (presence or absence of precipitate),100 μM in PBS buffer,soluble
same,hydrosolubility (presence or absence of precipitate),250 μM in PBS buffer,soluble
same,hydrosolubility (presence or absence of precipitate),500 μM in PBS buffer,soluble
same,hydrosolubility (presence or absence of precipitate),1 mM in PBS buffer,soluble
"COCCOCCOCCn1cc(CCC(=O)N2CCN(C(=O)Oc3ccc([N+](=O)[O-])cc3)C(CNC(=O)Cc3ccccc3)C2)nn1 (centres unmarked) [Compound 36, 4-nitrophenyl 4-(3-(1-(2-(2-(2-methoxyethoxy)ethoxy)ethyl)-1H-1,2,3-triazol-4-yl)propanoyl)-2-((2-phenylacetamido)methyl)piperazine-1-carboxylate]",hydrosolubility (presence or absence of precipitate),50 μM in PBS buffer,soluble
same,hydrosolubility (presence or absence of precipitate),100 μM in PBS buffer,soluble
same,hydrosolubility (presence or absence of precipitate),250 μM in PBS buffer,soluble
same,hydrosolubility (presence or absence of precipitate),500 μM in PBS buffer,soluble
same,hydrosolubility (presence or absence of precipitate),1 mM in PBS buffer,soluble
"COCCOCCOCCn1cc(CCC(=O)N2CCN(C(=O)Oc3ccc(Cl)cc3-c3nc4ccc(Cl)cc4c(=O)[nH]3)C(CNC(=O)Cc3ccccc3)C2)nn1 (centres unmarked) [Compound 39, 4-chloro-2-(6-chloro-4-oxo-3,4-dihydroquinazolin-2-yl)phenyl 4-(3-(1-(2-(2-(2-methoxyethoxy)ethoxy)ethyl)-1H-1,2,3-triazol-4-yl)propanoyl)-2-((2-phenylacetamido)methyl)piperazine-1-carboxylate]",hydrosolubility (presence or absence of precipitate),50 μM in PBS buffer,soluble
same,hydrosolubility (presence or absence of precipitate),100 μM in PBS buffer,soluble
same,hydrosolubility (presence or absence of precipitate),250 μM in PBS buffer,soluble
same,hydrosolubility (presence or absence of precipitate),500 μM in PBS buffer,insoluble
same,hydrosolubility (presence or absence of precipitate),1 mM in PBS buffer,insoluble
